Patent US20240140944A1, “NOVEL NAPHTHYRIDINONE DERIVATIVE HAVING INHIBITORY ACTIVITY AGAINST ECTONUCLEOTIDE PYROPHOSPHATASE-PHOSPHODIESTERASE AND USE THEREOF” (TXINNO BIOSCIENCE INC., priority 2020, published 2024)
Counter-ions that a name gives are not always drawn.

Target: T1, human recombinant ENPP1 enzymes (Homo sapiens, UniProt P22413)
T1 construct: purchased R & D systems
T1 sequence (P22413 1-925): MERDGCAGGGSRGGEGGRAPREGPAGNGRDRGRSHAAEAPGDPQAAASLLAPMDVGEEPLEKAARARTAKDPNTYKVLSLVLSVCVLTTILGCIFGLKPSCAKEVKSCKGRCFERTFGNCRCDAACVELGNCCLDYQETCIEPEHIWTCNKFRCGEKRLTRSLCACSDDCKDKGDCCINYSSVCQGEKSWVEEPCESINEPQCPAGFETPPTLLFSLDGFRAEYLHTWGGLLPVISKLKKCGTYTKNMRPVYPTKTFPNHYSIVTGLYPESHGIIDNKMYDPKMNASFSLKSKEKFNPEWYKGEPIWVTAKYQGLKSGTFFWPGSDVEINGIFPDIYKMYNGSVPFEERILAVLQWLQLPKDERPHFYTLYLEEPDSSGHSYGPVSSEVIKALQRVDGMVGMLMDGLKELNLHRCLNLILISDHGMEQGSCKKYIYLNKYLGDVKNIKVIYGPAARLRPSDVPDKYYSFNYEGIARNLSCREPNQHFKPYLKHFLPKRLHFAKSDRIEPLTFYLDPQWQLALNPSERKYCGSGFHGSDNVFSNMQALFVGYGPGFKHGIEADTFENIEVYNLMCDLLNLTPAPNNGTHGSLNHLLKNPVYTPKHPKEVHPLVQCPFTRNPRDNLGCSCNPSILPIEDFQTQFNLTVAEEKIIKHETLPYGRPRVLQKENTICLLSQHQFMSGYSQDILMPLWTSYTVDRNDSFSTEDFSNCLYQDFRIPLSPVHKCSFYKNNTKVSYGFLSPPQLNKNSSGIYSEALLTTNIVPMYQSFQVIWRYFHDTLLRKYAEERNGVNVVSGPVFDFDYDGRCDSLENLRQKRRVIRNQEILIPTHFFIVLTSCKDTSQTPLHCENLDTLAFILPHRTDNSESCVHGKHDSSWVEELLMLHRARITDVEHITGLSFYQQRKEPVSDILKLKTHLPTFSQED
Test: ENPP1 Enzyme Assay with cGAMP Substrate (AMP-Glo)
Format: biochemical
Conditions: human recombinant ENPP1 3 ng/reaction, cGAMP 5 μM, 37° C. 90 minutes, average of two or more tests; read-out: Enzymatic activity IC50
Method: ENPP1 hydrolyzes nucleotides or nucleotide derivatives to produce nucleoside-5′-monophosphate and pyrophosphate. In addition, ENPP1 hydrolyzes 2′,3′-cGAMP to produce 5′-adenosine monophosphate (AMP) and 5′-guanosine monophosphate (GMP). AMP produced from the reaction is measured using the AMP-Glo® kit (Promega). The AMP-Glo® kit contains two reagents. The first reagent terminates the AMP-producing enzymatic reaction, removes ATP and converts the produced AMP into ADP. The second reagent converts ADP to ATP which is used to generate luminescence in the luciferase reaction. The amount of luminescence measured is proportional to the amount of AMP produced by ENPP1.
The final reaction mixture contains 50 mM Tris (pH 8.5) buffer, 250 mM NaCl, 0.5 mM CaCl2), 1 μM ZnCl2, 5% glycerol and 1% DMSO. Serially diluted ENPP1 inhibitors (typically in the range of 10 μM to 0.5 nM) were pre-stored with human recombinant ENPP1 enzymes (R & D systems) at 3 ng/reaction and room temperature (RT) for 5 to 10 minutes. The reaction was initiated by addition of cGAMP (at a final concentration of 5 μM) and reacted at 37° C. for 90 minutes. At the end of the reaction, 10 μl of the AMP-Glo first reagent was added to stop the reaction and the result was stored at room temperature for 1 hour. After storage, 20 μl of an AMP detection solution (a mixture of AMP-Glo II reagent and Kinase-Glo at a ratio of 1:100) was added and stored at room temperature for 1 hour. Luminescence signals were measured using a Victor® plate reader (Perkin Elmer). The maximal activity control (containing enzymes and substrates in the presence of 1% DMSO; MAX) and the minimal activity control (containing substrates and 1% DMSO; MIN) were evaluated simultaneously. In each experiment, serially diluted reference ENPP1 inhibitors were tested as well. IC50, indicating % residual activity versus compound concentration was determined by fitting inhibition curves using the 3-parameter analysis of GraphPad Prism® software. Serially diluted samples of one compound were tested two or more times and an average IC50 of each compound was calculated.

Compound | IC50 [µM]
NCc1cccc(-c2ccnc3[nH]c(=O)ccc23)c1 [Example 7, 5-(3-(aminomethyl)phenyl)-1,8-naphthyridin-2(1H)-one hydrochloride] | < 1
O=c1ccc2c(Nc3ccc4c(c3)CNCCC4)ccnc2[nH]1 [Example 87, 5-((2,3,4,5-tetrahydro-1H-benzo[c]azepin-8-yl)amino)-1,8-naphthyridin-2(1H)-one dihydrochloride] | > 10
O=c1ccc2c(Nc3cc4c(cc3F)CNCC4)ccnc2[nH]1 [Example 86, 5-((7-fluoro-1,2,3,4-tetrahydroisoquinolin-6-yl)amino)-1,8-naphthyridin-2(1H)-one dihydrochloride] | 1 to 10
O=c1ccc2c(Nc3ccc4c(c3)CNC4)ccnc2[nH]1 [Example 84, dihydrochloride] | < 1
CN[C@@H](C)c1ccc(-c2ccnc3[nH]c(=O)ccc23)cc1 [Example 18, (S)-5-(4-(1-(methylaminoethyl)phenyl)-1,8-naphthyridin-2(1H)-one hydrochloride] | < 1
C[C@@H](NS(N)(=O)=O)c1ccc(-c2ccnc3[nH]c(=O)ccc23)cc1F [Example 48, (R)-(N-(1-(2-fluoro-4-(7-oxo-7,8-dihydro-1,8-naphthyridin-4-yl)phenyl)ethyl)sulfamide hydrochloride] | < 1
CC(C)N(Cc1ccc(-c2ccnc3[nH]c(=O)ccc23)c(F)c1)S(N)(=O)=O [Example 57, N-(3-fluoro-4-(7-oxo-7,8-dihydro-1,8-naphthyridin-4-yl)benzyl)-N-isopropyl)sulfamide hydrochloride] | > 10
CC(C)(C)OC(=O)NS(=O)(=O)NCc1ccc(-c2ccnc3[nH]c(=O)ccc23)cc1 [Example 32, tert-butyl(N-(4-(7-oxo-7,8-dihydro-1,8-naphthyridin-4-yl)benzyl)sulfamoyl)carbamate] | < 1
NCc1ccc(Nc2ccnc3[nH]c(=O)ccc23)cc1 [Example 82, 5-((4-(aminomethyl)phenyl)amino)-1,8-naphthyridin-2(1H)-one dihydrochloride] | < 1
CC(C)(C)OC(=O)NCc1cccc(-c2ccnc3[nH]c(=O)ccc23)c1 [Example 2, tert-butyl(3-(7-oxo-7,8-dihydro-1,8-naphthyridin-4-yl)benzyl)carbamate] | 1 to 10
O=c1ccc2c(-c3ccc(CNS(=O)(=O)C4CC4)cc3)ccnc2[nH]1 [Example 71, N-(4-(7-oxo-7,8-dihydro-1,8-naphthyridin-4-yl)benzyl)cyclopropanesulfonamide] | 1 to 10
NS(=O)(=O)NCc1cc(Nc2ccnc3[nH]c(=O)ccc23)ccc1F [Example 90, N-(2-fluoro-5((7-oxo-7,8-dihydro-1,8-naphthyridin-4-yl)amino)benzyl)sulfamide dihydrochloride] | < 1
C[C@H](c1ccc(-c2ccnc3[nH]c(=O)ccc23)cc1)N(C1CC1)S(N)(=O)=O [Example 60, (R)-(N-cyclopropyl-N-(1-(4-(7-oxo-7,8-dihydro-1,8-naphthyridin-4-yl)phenyl)ethyl)sulfamide hydrochloride] | 1 to 10
O=c1ccc2c(Nc3ccc4c(c3)CCNC4)ccnc2[nH]1 [Example 85, 5-((1,2,3,4-tetrahydroisoquinolin-6-yl)amino)-1,8-naphthyridin-2(1H)-one dihydrochloride] | < 1
Cn1c(=O)ccc2c(-c3ccc(CN)cc3)ccnc21 [Example 29, 5-(4-(aminomethyl)phenyl)-1-methyl-1,8-naphthyridin-2(1H)-one hydrochloride] | 1 to 10
NS(=O)(=O)Nc1ccc(-c2ccnc3[nH]c(=O)ccc23)cc1 [Example 39, N-(4-(7-oxo-7,8-dihydro-1,8-naphthyridin-4-yl)phenyl)sulfamide] | 1 to 10

Continued, values first:

IC50 [µM] | Compound
< 1 | NCC1CCN(c2ccnc3[nH]c(=O)ccc23)CC1 [Example 114, 5-(4-(aminomethyl)piperidin-1-yl)-1,8-naphthyridin-2(1H)-one hydrochloride]
> 10 | NCc1cccc(-c2ccnc3c2CCC(=O)N3)c1 [Example 132, 5-(3-(aminomethyl)phenyl)-3,4-dihydro-1,8-naphthyridin-2(1H)-one hydrochloride]
< 1 | NS(=O)(=O)NCCc1ccc(F)c(Nc2ccnc3[nH]c(=O)ccc23)c1 [Example 95, N-(4-fluoro-3-((7-oxo-7,8-dihydro-1,8-naphthyridin-4-yl)amino)phenethyl)sulfamide dihydrochloride]
< 1 | Cc1ccc(S(=O)(=O)NCc2cccc(-c3ccnc4c3CCC(=O)N4)c2)cc1 [Example 147, 4-methyl-N-(3-(7-oxo-5,6,7,8-tetrahydro-1,8-naphthyridin-4-yl)benzyl)benzenesulfonamide]
< 1 | NS(=O)(=O)Nc1cccc(-c2ccnc3c2CCC(=O)N3)c1 [Example 139, N-(3-(7-oxo-5,6,7,8-tetrahydro-1,8-naphthyridin-4-yl)phenyl)sulfamide]
1 to 10 | NS(=O)(=O)N(Cc1ccc(Nc2ccnc3[nH]c(=O)ccc23)cc1)C1CC1 [Example 99, N-cyclopropyl-N-(4-((7-oxo-7,8-dihydro-1,8-naphthyridin-4-yl)amino)benzyl)sulfamide dihydrochloride]
< 1 | NS(=O)(=O)NCC1CCN(c2ccnc3[nH]c(=O)ccc23)CC1 [Example 124, N-((1-(7-oxo-7,8-dihydro-1,8-naphthyridin-4-yl)piperidin-4-yl)methyl)sulfamide]
< 1 | NS(=O)(=O)N1CCc2cc(Nc3ccnc4[nH]c(=O)ccc34)c(F)cc2C1 [Example 106, (7-fluoro-6-((7-oxo-7,8-dihydro-1,8-naphthyridin-4-yl)amino)-3,4-dihydroisoquinolin-2(1H)-yl) sulfamide dihydrochloride]
1 to 10 | NS(=O)(=O)NCc1ccc(Nc2ccnc3[nH]c(=O)ccc23)cc1 [Example 98, N-(4-((7-oxo-7,8-dihydro-1,8-naphthyridin-4-yl)amino)benzyl)sulfamide dihydrochloride]
< 1 | Cn1c(=O)ccc2c(N3CCC(CNS(N)(=O)=O)CC3)ccnc21 [Example 128, N-((1-(8-methyl-7-oxo-7,8-dihydro-1,8-naphthyridin-4-yl)piperidin-4-yl)methyl)sulfamide]
< 1 | NS(=O)(=O)NCc1ccc(-c2ccnc3c2CCC(=O)N3)cc1 [Example 141, N-(4-(7-oxo-5,6,7,8-tetrahydro-1,8-naphthyridin-4-yl)benzyl)sulfamide]
> 10 | O=C1CCc2c(-c3ccc4c(c3)CNCC4)ccnc2N1 [Example 135, 5-(1,2,3,4-tetrahydroisoquinolin-7-yl)-3,4-dihydro-1,8-naphthyridin-2(1H)-one hydrochloride]
< 1 | NS(=O)(=O)N1CCC2(CCN(c3ccnc4[nH]c(=O)ccc34)CC2)C1 [Example 126, 8-(7-oxo-7,8-dihydro-1,8-naphthyridin-4-yl)-2,8-diazaspiro[4,5]decane-2-sulfamide]
< 1 | NS(=O)(=O)NCCC1CCN(c2ccnc3[nH]c(=O)ccc23)CC1 [Example 125, N-(2-(1-(7-oxo-7,8-dihydro-1,8-naphthyridin-4-yl)piperidin-4-yl)ethyl)sulfamide]
< 1 | CC(C)(N)c1ccc(-c2ccnc3c2CCC(=O)N3)cc1 [Example 134, 5-(4-(2-aminopropan-2-yl)phenyl)-3,4-dihydro-1,8-naphthyridin-2(1H)-one hydrochloride]
